Experimental data published in patent US9580433B2 (Janssen Pharmaceutica NV, priority 2013, dated 2017).
Read-outs that look alike come from different tables or passages of the source.

Key:
[1] = target: T1, BACE2 (Homo sapiens, UniProt Q9Y5Z0); test: BACE2 biochemical FRET based assay; details: recombinant BACE2, 450 min, pH 5.0; read-out: BACE2 Biochemical FRET based assay pIC50 (converted)
T1 construct: recombinant BACE2 protein in a final concentration of 0.4 μg/ml
T1 sequence (Q9Y5Z0 63-518): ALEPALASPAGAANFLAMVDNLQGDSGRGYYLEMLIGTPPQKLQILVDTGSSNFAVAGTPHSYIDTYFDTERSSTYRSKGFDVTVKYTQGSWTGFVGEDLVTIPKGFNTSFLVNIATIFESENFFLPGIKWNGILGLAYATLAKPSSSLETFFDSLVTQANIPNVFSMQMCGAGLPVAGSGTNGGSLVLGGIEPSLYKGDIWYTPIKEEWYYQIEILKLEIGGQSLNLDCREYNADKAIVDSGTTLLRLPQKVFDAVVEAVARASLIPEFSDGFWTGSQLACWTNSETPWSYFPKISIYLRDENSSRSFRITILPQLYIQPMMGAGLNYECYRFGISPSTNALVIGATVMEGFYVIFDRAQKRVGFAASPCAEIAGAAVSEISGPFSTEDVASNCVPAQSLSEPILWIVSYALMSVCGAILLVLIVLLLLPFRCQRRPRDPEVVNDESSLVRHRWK

[2] = target: T2, BACE1 (Homo sapiens, UniProt P56817); test: BACE1 biochemical FRET based assay
T2 construct: recombinant BACE1 protein in a final concentration of 0.04 g/ml
T2 sequence (P56817 46-501): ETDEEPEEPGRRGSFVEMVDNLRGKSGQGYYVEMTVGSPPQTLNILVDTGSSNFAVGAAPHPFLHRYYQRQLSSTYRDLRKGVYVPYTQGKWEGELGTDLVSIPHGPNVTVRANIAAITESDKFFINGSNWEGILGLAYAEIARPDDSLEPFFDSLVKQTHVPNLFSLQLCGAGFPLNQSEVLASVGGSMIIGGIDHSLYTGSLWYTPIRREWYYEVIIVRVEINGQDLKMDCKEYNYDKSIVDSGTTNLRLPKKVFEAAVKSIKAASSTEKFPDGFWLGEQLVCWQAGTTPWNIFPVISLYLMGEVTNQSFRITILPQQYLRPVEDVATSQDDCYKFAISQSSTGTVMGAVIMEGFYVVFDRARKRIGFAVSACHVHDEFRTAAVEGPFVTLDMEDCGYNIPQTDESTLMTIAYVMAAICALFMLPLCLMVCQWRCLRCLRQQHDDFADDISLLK

[3] = system: Abeta total produced and secreted by SKNBE2 cells (BACE1); test: BACE1 cellular αLisa assay in SKNBE2 cells, Abeta total; type: cell-based, human; details: SKNBE2 cells expressing hAPP695, 18 hours incubation; for IC50: Homo sapiens, SKNBE2, 18 h, read-out: Cellular αLisa assay in SKNBE2 cells Abetatotal pIC50 (converted)
Experimental: (§1) BACE1 Cellular αLisa Assay in SKNBE2 Cells
(§2) In two αLisa assays the levels of Abeta total and Abeta 1-42 produced and secreted into the medium of human neuroblastoma SKNBE2 cells are quantified. The assay is based on the human neuroblastoma SKNBE2 expressing the wild type Amyloid Precursor Protein (hAPP695). The compounds are diluted and added to these cells, incubated for 18 hours and then measurements of Abeta 1-42 and Abeta total are taken. Abeta total and Abeta 1-42 are measured by sandwich αLisa. αLisa is a sandwich assay using biotinylated antibody AbN/25 attached to streptavidin coated beads and antibody Ab4G8 or cAb42/26 conjugated acceptor beads for the detection of Abeta total and Abeta 1-42 respectively. In the presence of Abeta total or Abeta 1-42, the beads come into close proximity. The excitation of the donor beads provokes the release of singlet oxygen molecules that trigger a cascade of energy transfer in the acceptor beads, resulting in light emission. Light emission is measured after 1 hour incubation (excitation at […] and emission at 615 nm).
(§3) A best-fit curve is fitted by a minimum sum of squares method to the plot of % Controlmin versus compound concentration.

[4] = system: Abeta 1-42 produced and secreted by SKNBE2 cells (BACE1); test: BACE1 cellular αLisa assay in SKNBE2 cells, Abeta 1-42; type: cell-based, human; details: SKNBE2 cells expressing hAPP695, 18 hours incubation; for IC50: Homo sapiens, SKNBE2, 18 h, read-out: Cellular αLisa assay in SKNBE2 cells Abeta 42 pIC50 (converted)
Experimental: as §1, §2, §3

[5] = recombinant BACE1, 450 min, pH 5.0, read-out: BACE1 Biochemical FRET based assay pIC50 (converted)
[6] = Table 10, comparison with WO2012/085038 compounds, read-out: IC50 (nM), BACE1 biochemical FRET based assay

In the case of `COc1cnc(C(=O)Nc2ccc(F)c(C3(CF)Cn4cncc4C(N)=N3)c2)cn1` (racemic) [Compound 13, (rac)-N-{3-[8-Amino-6-(fluoromethyl)-5,6-dihydroimidazo[1,5-a]pyrazin-6-yl]-4-fluorophenyl}-5-methoxypyrazine-2-carboxamide], the IC50 [1] is reported as 93.3 nM, the IC50 [2, 5] is reported as 8.32 nM and the IC50 [3] is reported as 3.63 nM. It also gave an IC50 [4] of 3.63 nM.
For `COc1cnc(C(=O)Nc2ccc(F)c(C3(CF)Cn4cncc4C(N)=N3)c2)cn1` (single isomer, unassigned) [Compound 14, N-{3-[8-amino-6-(fluoromethyl)-5,6-dihydroimidazo[1,5-a]pyrazin-6-yl]-4-fluorophenyl}-5-methoxypyrazine-2-carboxamide (R or S)], the IC50 [1] was 5370 nM, the IC50 [2, 5] was 933 nM and the “Cellular αLisa assay in SKNBE2 cells Abetatotal pIC50” value [3] was 6.06. For the same compound, the “Cellular αLisa assay in SKNBE2 cells Abeta 42 pIC50” value [4] was 6.07.
With `COc1cnc(C(=O)Nc2ccc(F)c(C3(CF)Cn4cncc4C(N)=N3)c2)cn1` (single isomer, unassigned) [Compound 15, N-{3-[8-amino-6-(fluoromethyl)-5,6-dihydroimidazo[1,5-a]pyrazin-6-yl]-4-fluorophenyl}-5-methoxypyrazine-2-carboxamide (S or R)] the IC50 [1] was 37.2 nM, the IC50 [2, 5] was 2.24 nM and the “Cellular αLisa assay in SKNBE2 cells Abetatotal pIC50” value [3] was 8.74. The “Cellular αLisa assay in SKNBE2 cells Abeta 42 pIC50” value [4] was 8.74.
`C[C@@]1(c2cc(NC(=O)c3ccc(Cl)cn3)ccc2F)Cn2c(C(F)F)cnc2C(N)=N1` [74 (WO2012/085038), reference compound] gave an IC50 [2, 6] of 18.6 nM.
With `C[C@@]1(c2cc(NC(=O)c3ccc(C#N)cn3)ccc2F)Cn2c(C(F)F)cnc2C(N)=N1` [75 (WO2012/085038), reference compound] the IC50 [2, 6] was 13.8 nM.
`COc1cnc(C(=O)Nc2ccc(F)c([C@]3(C)Cn4c(C(F)F)cnc4C(N)=N3)c2)cn1` [76 (WO2012/085038), reference compound] showed an IC50 [2, 6] of 83.2 nM.
For `COc1cnc(C(=O)Nc2ccc(F)c([C@]3(C)Cn4cncc4C(N)=N3)c2)cn1` [Compound 1, N-{3-[(6R)-8-Amino-6-methyl-5,6-dihydroimidazo[1,5-a]pyrazin-6-yl]-4-fluorophenyl}-5-methoxypyrazine-2-carboxamide], the IC50 [1] was 55 nM, the IC50 [2, 5] was 4.9 nM and the IC50 [3] was 2.75 nM. It also gave an IC50 [4] of 3.31 nM.
In the case of `C[C@@]1(c2cc(-c3cncnc3)ccc2F)Cn2cncc2C(N)=N1` [Compound 2, (6R)-6-(2-Fluoro-5-pyrimidin-5-ylphenyl)-6-methyl-5,6-dihydroimidazo[1,5-a]pyrazin-8-amine], the IC50 [1] is reported as 7240 nM, the IC50 [2, 5] is reported as 708 nM and the IC50 [3] is reported as 229 nM. For the same compound, the IC50 [4] was 245 nM.
`C[C@@]1(c2cc(NC(=O)c3ccc(Cl)cn3)ccc2F)Cn2cncc2C(N)=N1` [Compound 3, N-{3-[(6R)-8-amino-6-methyl-5,6-dihydroimidazo[1,5-a]pyrazin-6-yl]-4-fluorophenyl}-5-chloropyridine-2-carboxamide] was tested, and the IC50 [1] was 4.07 nM, the IC50 [2, 6] was 3.16 nM and the IC50 [2, 5] was 3.16 nM. For the same compound, the IC50 [3] was 2.34 nM and the IC50 [4] was 2.95 nM.
With `Cc1ncn2c1C(N)=N[C@](C)(c1cc(-c3cncnc3)ccc1F)C2` [Compound 6, (6R)-6-(2-Fluoro-5-pyrimidin-5-ylphenyl)-1,6-dimethyl-5,6-dihydroimidazo[1,5-a]pyrazin-8-amine] the IC50 [2, 5] was > 10000 nM, the IC50 [3] was > 10000 nM and the IC50 [4] was > 10000 nM.
For `Cc1cc(C#N)cnc1C(=O)Nc1ccc(F)c([C@]2(C)Cn3cncc3C(N)=N2)c1` [Compound 7, N-{3-[(6R)-8-amino-6-methyl-5H-imidazo[1,5-a]pyrazin-6-yl]-4-fluoro-phenyl}-5-cyano-3-methyl-pyridine-2-carboxamide], the IC50 [1] was 8.13 nM, the IC50 [2, 5] was 3.98 nM and the IC50 [3] was 5.5 nM. For the same compound, the IC50 [4] was 6.17 nM.
Compound `C[C@@]1(c2cc(NC(=O)c3ccc(F)cn3)ccc2F)Cn2cncc2C(N)=N1` [Compound 8, N-{3-[(6R)-8-amino-6-methyl-5,6-dihydroimidazo[1,5-a]pyrazin-6-yl]-4-fluorophenyl}-5-fluoropyridine-2-carboxamide] has an IC50 [1] of 12.6 nM, an IC50 [2, 5] of 22.4 nM and an IC50 [3] of 17.4 nM. It also gave an IC50 [4] of 19.1 nM.
Work on `C[C@@]1(c2cc(NC(=O)c3ccc(C#N)cn3)ccc2F)Cn2c(cnc2C#N)C(N)=N1` [Compound 9, N-{3-[(6R)-8-Amino-3-cyano-6-methyl-5,6-dihydroimidazo[1,5-a]pyrazin-6-yl]-4-fluorophenyl}-5-cyanopyridine-2-carboxamide] yielded an IC50 [1] of 2.14 nM, an IC50 [2, 5] of 1.45 nM and an IC50 [3] of 2.24 nM. For the same compound, the IC50 [4] was 2 nM.
For `C[C@@]1(c2cc(NC(=O)c3ccc(C#N)cn3)ccc2F)Cn2c(cnc2C(F)F)C(N)=N1` [Compound 10, N-{3-[(6R)-8-amino-3-(difluoromethyl)-6-methyl-5,6-dihydroimidazo[1,5-a]pyrazin-6-yl]-4-fluorophenyl}-5-cyanopyridine-2-carboxamide], the IC50 [1] was 15.8 nM, the IC50 [2, 6] was 3.47 nM and the IC50 [2, 5] was 3.47 nM. The IC50 [3] was 1.07 nM and the IC50 [4] was 0.955 nM.
For `C[C@@]1(c2cc(NC(=O)c3ccc(Cl)cn3)ccc2F)Cn2c(cnc2C(F)F)C(N)=N1` [Compound 11, N-{3-[(6R)-8-amino-3-(difluoromethyl)-6-methyl-5,6-dihydroimidazo[1,5-a]pyrazin-6-yl]-4-fluoropheny}-5-chloropyridine-2-carboxamide], the IC50 [1] was 2.75 nM, the IC50 [2, 6] was 3.16 nM and the IC50 [2, 5] was 3.16 nM. For the same compound, the IC50 [3] was 0.631 nM and the IC50 [4] was 0.575 nM.
Compound `COc1cnc(C(=O)Nc2ccc(F)c([C@]3(C)Cn4c(cnc4C(F)F)C(N)=N3)c2)cn1` [Compound 12, N-{3-[(6R)-8-amino-3-(difluoromethyl)-6-methyl-5,6-dihydroimidazo[1,5-a]pyrazin-6-yl]-4-fluoropheny}-5-methoxypyrazine-2-carboxamide] has an IC50 [1] of 24 nM, an IC50 [2, 6] of 3.8 nM and an IC50 [2, 5] of 3.8 nM. For the same compound, the IC50 [3] was 0.851 nM and the IC50 [4] was 0.813 nM.
For `C[C@@]1(c2cc(NC(=O)c3ccc(C#N)cn3)ccc2F)Cn2c(cnc2CC2CC2)C(N)=N1` [Compound 16, N-{3-[(6R)-8-Amino-3-(cyclopropylmethyl)-6-methyl-5,6-dihydroimidazo[1,5-a]pyrazin-6-yl]-4-fluorophenyl}-5-cyanopyridine-2-carboxamide], the IC50 [1] was 9.55 nM, the IC50 [2, 5] was 1.38 nM and the IC50 [3] was 2.14 nM. The IC50 [4] was 1.91 nM.
For `CC(=O)NCc1ncc2n1C[C@@](C)(c1cc(NC(=O)c3ccc(C#N)cn3)ccc1F)N=C2N` [Compound 17, N-(3-{(6R)-3-[(Acetylamino)methyl]-8-amino-6-methyl-5,6-dihydroimidazo[1,5-a]pyrazin-6-yl}-4-fluorophenyl)-5-cyanopyridine-2-carboxamide], the IC50 [2, 5] was 1.86 nM, the IC50 [3] was 5.25 nM and the IC50 [4] was 4.79 nM.
